# Results taken from patent publication US8835375B2 (Applied Nanosystems B.V., priority 2006, dated 2014).
# “Also recorded” adds a separate entry of the source. Non-standard residues stand in square brackets, D forms with d. No end group written: not given here. Abu = CC[C@H](N)C(=O)O
# Columns and labels:
# [1] = test system: Angiotensin Converting Enzyme (ACE); assay: Angiotensin Converting Enzyme (ACE) from Porcine kidney, SIGMA, 4 nM in 100 mM Tris-HCl, 300 mm NaCl, 10 μM Zn, pH 8.3; conditions: 37° C., up to 26 hour
# [2] = plasma from rat under continuous intravenous infusion (1 mL/hour); conditions: Sprague Dawley rat, up to 120 min
# [3] = test system: Angiotensin Converting Enzyme (ACE); assay: Angiotensin Converting Enzyme (ACE) from Porcine kidney, SIGMA, 8 nM in 100 mM Tris-HCl, 300 mm NaCl, 10 μM Zn, pH 8.3; conditions: 37° C.
# angiotensinases = assay: in the body; angiotensinases located in red blood cells and the vascular beds of most tissues; conditions: cited from earlier work
# [4] = cited from earlier work
# [5] = test system: angiotensin-I converting enzyme (ACE); assay: angiotensin-I converting enzyme (ACE) of the vascular endothelium; conditions: cited from earlier work
substance,measurement,setting,value
DRV[Abu]IHA,not cleaved,[1],no degradation after 26 hour
same,not cleaved,[2],intact peptide detected in the sample taken at 120 min; very stable
same,not cleaved,[3],no breakdown observed
Asp-Arg-Val-Tyr-Ile-His-Pro-Phe,fragment found,angiotensinases,angiotensin III (Arg-Val-Tyr-Ile-His-Pro-Phe; or Ang(2-8)
DRVYIHPFHL,fragment found,[4],Ang(1-9); also recorded: Ang(1-7); also recorded: Ang III (Ang(2-8)); also recorded: Ang IV (Ang(3-8))
same,cleaved bond,[5],Phe8-His9
